Measurements taken from patent US8921320B2, “Targeted osmotic lysis of cancer cells” (Board of Supervisors of Louisiana State University and …, priority 2011, dated 2014).
“Also recorded” adds a separate entry of the source. Read-outs that look alike come from different tables or passages of the source.

Legend:
[1] = test system: MDA-MB-231 breast cancer cells; assay: cells; format: cell-based; conditions: alamar blue added after 1 hr, read 4 hr later
Procedure: The effect of the combination of ouabain (a sodium pump inhibitor) and veratridine (a sodium […]) on viability of cultured MDA-MB-231 and MCF-7 breast cancer cells was assessed. The former cells over-express VGSCs by more than 1000-fold, whereas the latter cells over-express VGSCs by 100-fold (24). MDA-MB-231 cells were cultured in DMEM, whereas MCF-7 cells were cultured in DMEM+10 μM insulin. After centrifugation, both cell lines were re-suspended in DMEM+10 μM insulin to assure normal functioning of Na^+, K^+-ATPase, and approximately 5000 cells were added to each well in a 96-well plate in a volume of 100 μl. After 18 hr, the media was aspirated, and the cells were treated with 100 μl DMEM+10 μM insulin (“media”) alone, media+100 nM ouabain, media+30 μM veratridine, or media+100 nM ouabain+30 μM veratridine. After 1 hr, […] alamar blue was added to each well, and cell viability determined 4 hr after this addition. All determinations were obtained in quadruplicate, and the experiment repeated three times. […] Veratridine alone reduced viability of MDL-MB-231 cells by 15% (FIG. 1) compared to media alone-treated cells. In this initial experiment, ouabain combined with veratridine produced a 30% reduction in cell viability. In MCF-7 cells, none of the treatments affected cell viability (Data not shown). […]

[2] = test system: muscle, peripheral nerves, heart, and brain; format: in vivo, J/Nu mice
Procedure: As an in vivo model of cancer, MDA-MB-231 cells were suspended in matrigel and injected subcutaneously into the backs of 5 nude (J-NU) mice. Each mouse developed 0.75-1.2 cm tumors in 3-5 weeks. The mice were then injected subcutaneously with 10 mg/kg ouabain or saline. After 30 min, the mice were anesthetized with 4% isoflurane, and the tumors exposed through a small incision in the skin. An anode and a cathode were inserted into each tumor, and a train of 120 1 V DC pulses (10 msec, 2 Hz for 1 min) was delivered through the anode and cathode as discussed above. A total of 11 tumors were tested. Three tumors were from mice treated with ouabain and electrically stimulated (O-ES experimental). Of the rest, two were from a mouse treated with saline and not electrically stimulated (S-NS control), three were from mice treated with ouabain but not electrically stimulated (O-NS control), and three were from mice treated with saline and electrically stimulated (S-ES control). The electrical stimulation was repeated 15 and 30 min later. One day later, mice were sacrificed with an overdose of Nat pentobarbital, perfused with 4% buffered paraformaldehyde, and the tumors removed. The tumors were sectioned at 5 μm and stained with hematoxylin and eosin. […]

[3] = test system: MDA-MB-231 (breast cancer); assay: Time to lysis of cultured cancer cells (drug + electrical stimulation); format: cell-based; conditions: 2 V DC, 200 pulses per second, 5 min limit
Source text: (§1) We also used two cardiac glycoside drugs that are currently FDA-approved for clinical use, ouabain and digoxin, for in vitro lysis of multiple lines of carcinoma. […] Cell lines were: MDA-MB-231 (breast cancer); MCF-7 (breast cancer; ATCC# HTB-22); LNCaP (prostate cancer; ATCC# CRL-1740); DU145 (prostate cancer; ATCC# HTB-81); MCA-38 (colon cancer; from Dr. Augusto Ochoa); A549 (non-small cell lung cancer; ATCC# CCL-185); and 3LL (non-small cell lung cancer; from Dr. Augusto Ochoa, Louisiana State University, New Orleans, La.). Cells were plated in 35 mm diameter culture dishes in Dulbecco's Modified Eagle's Medium (DMEM, Gibco) supplemented with 4 mM L-glutamine, 1 mM sodium pyruvate and 10 μM insulin for 18-24 hr. […] A 2 V DC current, 200 pulses per second was passed across individual cells using a Grass Model SD9 stimulator (Grass Instruments, Quincy, Mass.) through platinum wire electrodes held in place with a David Kopf Instrument micromanipulator (Tarzana, Calif.), and the time to lysis was measured. Video recordings of representative experiments were prepared digitally using a Canon Vixia HFM400 camera attached to Leica DM IL microscope, and are available upon request. […] All of the cancer cells lysed, with the time to lysis faster for the cells with the largest known expression of VGSCs.

[4] = test system: 3LL (non-small cell lung cancer); assay: as above; format: cell-based; conditions: 2 V DC, 200 pulses per second, 5 min limit
Source text: as §1

DU145 (prostate cancer) = assay: as above; format: cell-based; conditions: 2 V DC, 200 pulses per second, 5 min limit
Source text: as §1

MCA-38 (colon cancer) = assay: as above; format: cell-based; conditions: 2 V DC, 200 pulses per second, 5 min limit
Source text: as §1

LNCaP (prostate cancer) = assay: as above; format: cell-based; conditions: 2 V DC, 200 pulses per second, 5 min limit
Source text: as §1

MDA-MB-231 tumors [5] = assay: In vivo TOL in breast cancer xenografts, tumor histology (hematoxylin and eosin); parameters: species or system nude (J-NU) mice
Procedure: As an in vivo model of cancer, MDA-MB-231 cells were suspended in matrigel and injected subcutaneously into the backs of 5 nude (J-NU) mice. Each mouse developed 0.75-1.2 cm tumors in 3-5 weeks. The mice were then injected subcutaneously with 10 mg/kg ouabain or saline. After 30 min, the mice were anesthetized with 4% isoflurane, and the tumors exposed through a small incision in the skin. An anode and a cathode were inserted into each tumor, and a train of 120 1 V DC pulses (10 msec, 2 Hz for 1 min) was delivered through the anode and cathode as discussed above. A total of 11 tumors were tested. Three tumors were from mice treated with ouabain and electrically stimulated (O-ES experimental). Of the rest, two were from a mouse treated with saline and not electrically stimulated (S-NS control), three were from mice treated with ouabain but not electrically stimulated (O-NS control), and three were from mice treated with saline and electrically stimulated (S-ES control). The electrical stimulation was repeated 15 and 30 min later. One day later, mice were sacrificed with an overdose of Nat pentobarbital, perfused with 4% buffered paraformaldehyde, and the tumors removed. The tumors were sectioned at 5 μm and stained with hematoxylin and eosin. […] The other two mice in the O-ES group had tumors that were not highly vascularized, and thus the ouabain could not efficiently distribute to the tumor cells.
As an in vivo model of cancer, we injected 4 million MDA-MB-231 cells, suspended in matrigel, subcutaneously into the backs of 5 nude (J-NU) mice. Each mouse developed 0.75-1.2 cm tumors in 3-5 weeks. The mice were injected subcutaneously with 10 mg/kg ouabain or saline and then after 30 min anesthetized with 4% isoflurane. The tumors of the mice were exposed through a small incision in the skin. An anode and a cathode were inserted into each tumor, and a train of 120 1 V DC pulses (10 msec, 2 pulses per second for 1 min) using the Grass SD9 stimulator was delivered through a copper anode and cathode. Some controls received no stimulation. A total of 11 tumors were tested. Three tumors were from mice treated with 10 mg/kg s.c. ouabain and electrically stimulated (O-ES experimental). […]
This experiment was repeated using 10 mice (2 per control group and 4 in the experimental group.) Four million MDA-MB-231 cells suspended in 50% matrigel were injected s.c. in J/Nu mice, and tumors allowed to grow until visibly vascularized (reddish in appearance.) Stimulation parameters were 10 V DC, 1 msec pulses @ 200 pulses per second. […] One day later, animals were sacrificed, perfused, tumors removed, and prepared for hematoxylin and eosin staining Stained sections from each of the tumors were evaluated by a trained histologist.

MDA-MB-231 tumors [6] = assay: Tumor growth following a single TOL treatment; format: in vivo, J/Nu mice; conditions: single treatment Day 0: ouabain 10 mg/kg + 2×1 min electrical stimulation; cross-sectional area followed three weeks; p<0.01
Procedure: When vascularized tumors became apparent, mice were divided into 4 treatment groups: Saline-No stimulation; Saline-Stimulation (2×1 min electrical stimulation); Ouabain (10 mg/kg)-No stimulation; and Ouabain (10 mg/kg)-Stimulation (2×1 min electrical stimulation). Only a single treatment was given for each treatment group on Day 0 of FIG. 2. Tumor cross-sectional area was then measured with calipers every-other day for three weeks. The tumor growth was expressed as a percent pre-treatment size and plotted against time.

[7] = test system: MDA-MB-231 breast cancer cells; format: cell-based
Procedure: The effectiveness of TOL has been tested using an in vitro model for breast cancer. MDA-MB-231 breast cancer cells were cultured to complete confluency in 96-well plates. These breast cancer cells are known to over-express VGSCs by 1400-fold. These cells were exposed to Dulbecco's modified Eagle's medium (DMEM), or the cardiac glycoside drugs (known sodium pump inhibitors) ouabain (10 pM-100 nM; Sigma Chemical Co., St. Louis, Mo.) or digitoxin (100 pM-1 μM; Sigma) dissolved in DMEM for 30 min. After exposure to the sodium pump inhibitors, an electric current (0 V, 100 mV, or 1 V DC) was passed across the cells using an anode and a cathode placed touching the bottom of each well or an etched circuit in the bottom of the plate. The electric current was generated using a Grass Model SD9 stimulator (Grass Instruments, Quincy, Mass.) through platinum wire electrodes.
Initially we cultured MDA-MB-231 (ATCC, Manassas, Va., cat #HTB-26) breast cancer cells to complete confluency in 96-well plates. These cells over-express VGSCs by 100-fold. […] An electric current (0 V, 100 mV, or 1 V DC) was passed across the cells by means of an anode and a cathode placed touching the bottom of each well as in Example 1.

[8] = test system: A549 (non-small cell lung cancer); assay: Time to lysis of cultured cancer cells (drug + electrical stimulation); format: cell-based; conditions: 100 nM ouabain, 2 V DC, 200 pulses per second, 5 min limit
Procedure: (§2) Cell lines were: MDA-MB-231 (breast cancer); MCF-7 (breast cancer; ATCC# HTB-22); LNCaP (prostate cancer; ATCC# CRL-1740); DU145 (prostate cancer; ATCC# HTB-81); MCA-38 (colon cancer; from Dr. Augusto Ochoa); A549 (non-small cell lung cancer; ATCC# CCL-185); and 3LL (non-small cell lung cancer; from Dr. Augusto Ochoa, Louisiana State University, New Orleans, La.). Cells were plated in 35 mm diameter culture dishes in Dulbecco's Modified Eagle's Medium (DMEM, Gibco) supplemented with 4 mM L-glutamine, 1 mM sodium pyruvate and 10 μM insulin for 18-24 hr. […] A 2 V DC current, 200 pulses per second was passed across individual cells using a Grass Model SD9 stimulator (Grass Instruments, Quincy, Mass.) through platinum wire electrodes held in place with a David Kopf Instrument micromanipulator (Tarzana, Calif.), and the time to lysis was measured. Video recordings of representative experiments were prepared digitally using a Canon Vixia HFM400 camera attached to Leica DM IL microscope, and are available upon request.

MCF-7 (breast cancer) = assay: as above; format: cell-based; conditions: 100 nM ouabain, 2 V DC, 200 pulses per second, 5 min limit
Procedure: as §2

COc1ccc(C(=O)O[C@H]2CC[C@@]3(C)[C@@H]4CC[C@H]5[C@]6(O)C[C@H](O)[C@@]7(O)[C@@H](CN8C[C@@H](C)CC[C@H]8[C@@]7(C)O)[C@]6(O)C[C@@]53O[C@]24O)cc1OC [veratridine]
cytotoxicity at 30 µM ([1]; Homo sapiens, 30 μM veratridine alone, read-out: reduction in cell viability compared to media alone): 15%

C[C@@H]1O[C@@H](O[C@H]2C[C@@H](O)[C@]3(CO)[C@H]4[C@H](O)C[C@]5(C)[C@@H](C6=CC(=O)OC6)CC[C@]5(O)[C@@H]4CC[C@]3(O)C2)[C@H](O)[C@H](O)[C@H]1O [ouabain]
lysis in healthy muscle, peripheral nerves, heart, and brain ([2]; 10 mg/kg ouabain s.c., tissues electrically stimulated after 30 min, one day later): None of these tissues showed signs of lysis
cell death in normal muscle taken from the base of the tumor ([2]; 10 mg/kg s.c. ouabain + electrical stimulation (1 V DC), same mouse as the tumor with 80% cell death): no sign of cell death
Mean time-to-lysis ± SEM, Ouabain + Stimulation ([3]; 100 nM ouabain 15-45 min): 69.3 ± 4.82 s
Mean time-to-lysis ± SEM, Ouabain + Stimulation ([4]; 100 nM ouabain): 115.9 ± 3.33 s
Mean time-to-lysis ± SEM, Ouabain + Stimulation (DU145 (prostate cancer); 100 nM ouabain): 81.6 ± 3.96 s
Mean time-to-lysis ± SEM, Ouabain + Stimulation (MCA-38 (colon cancer); 100 nM ouabain): 74.0 ± 1.0 s
Mean time-to-lysis ± SEM, Ouabain + Stimulation (LNCaP (prostate cancer); 100 nM ouabain): 143.1 ± 5.78 s
lysis in tumors that were not highly vascularized (MDA-MB-231 tumors [5]; 10 mg/kg s.c. ouabain + electrical stimulation (1 V DC), the other two mice of the O-ES group): no lysis was seen
tumor cell death after treatment (MDA-MB-231 tumors [5]; 10 mg/kg s.c. ouabain + electrical stimulation (120 1 V DC pulses, repeated 15 and 30 min later), one of three O-ES tumors, one day later): 80%
cell lysis in tumors, ouabain without electrical stimulation (O-NS control) (MDA-MB-231 tumors [5]; 10 mg/kg s.c. ouabain, no stimulation, three tumors, one day later): None of the tumors in any of the other three treatments showed any sign of cell lysis; also recorded: None of the tumors in any of the three control treatments showed any sign of cell lysis
lysis in control tumors (incl. ouabain without stimulation) (MDA-MB-231 tumors [5]; repeat experiment, 10 mice, 2 per control group, 10 mg/kg s.c. ouabain): none of the controls showed any sign of lysis
tumor size smaller than in the three other groups (MDA-MB-231 tumors [6]): 70%
change in cell viability compared to media-only controls ([1]; 100 nM ouabain alone): no decrease in cell viability
cancer cell death in wells ([7]; ≧1 nM ouabain 30 min, then 100 mV or 1 V DC electric current, 6 of 24 wells (ouabain or digoxin)): every cancer cell died; also recorded: all cancer cells died
Mean time-to-lysis ± SEM, Ouabain + Stimulation [8]: 149.9 ± 11.70 s
Mean time-to-lysis ± SEM, Ouabain + Stimulation (MCF-7 (breast cancer)): 170.5 ± 15.35 s

C[C@H]1O[C@@H](O[C@H]2[C@@H](O)C[C@H](O[C@H]3[C@@H](O)C[C@H](O[C@H]4CC[C@@]5(C)[C@H](CC[C@@H]6[C@@H]5C[C@@H](O)[C@]5(C)[C@@H](C7=CC(=O)OC7)CC[C@]65O)C4)O[C@@H]3C)O[C@@H]2C)C[C@H](O)[C@@H]1O [digoxin]
Mean time-to-lysis ± SEM, Digoxin + Stimulation ([3]; 1 μM digoxin 15-45 min): 68.39 ± 7.31 s
Mean time-to-lysis ± SEM, Digoxin + Stimulation ([4]; 1 μM digoxin): 163.75 ± 8.27 s
Mean time-to-lysis ± SEM, Digoxin + Stimulation (DU145 (prostate cancer); 1 μM digoxin): 111.3 ± 9.7 s
Mean time-to-lysis ± SEM, Digoxin + Stimulation (MCA-38 (colon cancer); 1 μM digoxin): 122.7 ± 9.02 s
Mean time-to-lysis ± SEM, Digoxin + Stimulation (LNCaP (prostate cancer); 1 μM digoxin): 122.9 ± 3.13 s
cancer cell death in wells [7]: every cancer cell died; also recorded: all cancer cells died
